Data as given in the supplement of paper PMC11368000.

What was measured:
Conditions in all cases: exposure time: 90 min
[1] = test system: 1392 (donor line of iPSC-derived cardiomyocytes); experiment: POD (EC05) for decrease in beat frequency (negative chronotrope) vs vehicle; higher = less potent (higher point of departure)
Procedure: (§1)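 Human iPSC-derived cardiomyocytes from 16 donors were exposed for 90 min at 37 °C to each PFAS at 0.1, 1, 10 and 100 µM in 0.5% DMSO, 384-well plates. Kinetic Ca2+ flux (FLIPR) and Hoechst nuclei counts were normalised to vehicle wells and fitted with a hierarchical Bayesian Hill model to give donor-specific PODs: EC05 for beat-rate increase or decrease and for decay-to-rise ratio increase (QT proxy), EC95 for peak-frequency loss (asystole), EC10 for total cell number loss. 0.03 µM is the lower bound.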

[2] = test system: 1516 (donor line of iPSC-derived cardiomyocytes); experiment: as above
Procedure: as §1

[3] = test system: 1518 (donor line of iPSC-derived cardiomyocytes); experiment: as above
Procedure: as §1

[4] = test system: 1535 (donor line of iPSC-derived cardiomyocytes); experiment: as above
Procedure: as §1

[5] = test system: 1565 (donor line of iPSC-derived cardiomyocytes); experiment: as above
Procedure: as §1

[6] = test system: 1083 (donor line of iPSC-derived cardiomyocytes); experiment: POD (EC05) for increase in beat frequency (positive chronotrope) vs vehicle; higher = less potent (higher point of departure)
Procedure: as §1

[7] = test system: 1118 (donor line of iPSC-derived cardiomyocytes); experiment: as above
Procedure: as §1

[8] = test system: 11235 (donor line of iPSC-derived cardiomyocytes); experiment: as above
Procedure: as §1

[9] = test system: 1309 (donor line of iPSC-derived cardiomyocytes); experiment: as above
Procedure: as §1

[10] = test system: 1368 (donor line of iPSC-derived cardiomyocytes); experiment: as above
Procedure: as §1

[11] = test system: 1392; experiment: as above
Procedure: as §1

[12] = test system: 1434 (donor line of iPSC-derived cardiomyocytes); experiment: as above
Procedure: as §1

[13] = test system: 1516; experiment: as above
Procedure: as §1

[14] = test system: 1518; experiment: as above
Procedure: as §1

[15] = test system: 1531 (donor line of iPSC-derived cardiomyocytes); experiment: as above
Procedure: as §1

[16] = test system: 1535; experiment: as above
Procedure: as §1

[17] = test system: 1565; experiment: as above
Procedure: as §1

[18] = test system: 20032 (donor line of iPSC-derived cardiomyocytes); experiment: as above
Procedure: as §1

[19] = test system: 20084 (donor line of iPSC-derived cardiomyocytes); experiment: as above
Procedure: as §1

[20] = test system: 30171 (donor line of iPSC-derived cardiomyocytes); experiment: as above
Procedure: as §1

Structure (SMILES)	POD vs vehicle [1]	POD vs vehicle [2]	POD vs vehicle [3]	POD vs vehicle [4]	POD vs vehicle [5]	POD vs vehicle [6]	POD vs vehicle [7]	POD vs vehicle [8]	POD vs vehicle [9]	POD vs vehicle [10]	POD vs vehicle [11]	POD vs vehicle [12]	POD vs vehicle [13]	POD vs vehicle [14]	POD vs vehicle [15]	POD vs vehicle [16]	POD vs vehicle [17]	POD vs vehicle [18]	POD vs vehicle [19]	POD vs vehicle [20]
OCC(F)(F)C(F)(F)C(F)(F)C(F)F [1H,1H,5H-Perfluoropentanol]	> 100 µM	> 100 µM	> 100 µM	> 100 µM	> 100 µM	> 100 µM	> 100 µM	> 100 µM	> 100 µM	> 100 µM	> 100 µM	> 100 µM	> 100 µM	> 100 µM	> 100 µM	> 100 µM	> 100 µM	> 100 µM	> 100 µM	> 100 µM
O=C(O)C(F)(F)C(F)(F)C(F)(F)C(F)(F)F [Perfluoropentanoic_acid]	> 100 µM	> 100 µM	> 100 µM	> 100 µM	> 100 µM	> 100 µM	> 100 µM	> 100 µM	> 100 µM	> 100 µM	> 100 µM	> 100 µM	> 100 µM	> 100 µM	> 100 µM	> 100 µM	> 100 µM	> 100 µM	> 100 µM	> 100 µM
O=C(CC(=O)C(F)(F)C(F)(F)F)C(F)(F)F [3H,3H-Perfluoro-2,4-hexanedione]	> 100 µM	45.3 µM	> 100 µM	> 100 µM	> 100 µM	> 100 µM	> 100 µM	> 100 µM	> 100 µM	> 100 µM	> 100 µM	> 100 µM	> 100 µM	> 100 µM	> 100 µM	> 100 µM	> 100 µM	> 100 µM	> 100 µM	> 100 µM
O=S(=O)([O-])C(F)(F)C(F)(F)C(F)(F)C(F)(F)F.[K+] [Potassium_perfluorobutanesulfonate]	> 100 µM	> 100 µM	> 100 µM	> 100 µM	> 100 µM	> 100 µM	> 100 µM	> 100 µM	> 100 µM	> 100 µM	> 100 µM	> 100 µM	> 100 µM	> 100 µM	> 100 µM	> 100 µM	> 100 µM	> 100 µM	> 100 µM	> 100 µM
O=C(O)C(F)(F)C(F)(F)C(F)(F)F [Perfluorobutanoic_acid]	> 100 µM	> 100 µM	> 100 µM	> 100 µM	> 100 µM	> 100 µM	> 100 µM	> 100 µM	> 100 µM	> 100 µM	> 100 µM	> 100 µM	> 100 µM	> 100 µM	> 100 µM	> 100 µM	> 100 µM	> 100 µM	> 100 µM	> 100 µM
NC(=O)C(F)(F)C(F)(F)C(F)(F)C(F)(F)C(F)(F)C(F)(F)C(F)(F)F [Perfluorooctanamide]	> 100 µM	> 100 µM	> 100 µM	> 100 µM	> 100 µM	> 100 µM	> 100 µM	> 100 µM	> 100 µM	> 100 µM	> 100 µM	> 100 µM	> 100 µM	> 100 µM	> 100 µM	> 100 µM	> 100 µM	> 100 µM	> 100 µM	> 100 µM
NC(=O)C(F)(F)C(F)(F)C(F)(F)F [Heptafluorobutyramide]	> 100 µM	> 100 µM	> 100 µM	> 100 µM	> 100 µM	> 100 µM	> 100 µM	> 100 µM	> 100 µM	> 100 µM	> 100 µM	> 100 µM	> 100 µM	> 100 µM	> 100 µM	> 100 µM	> 100 µM	> 100 µM	> 100 µM	> 100 µM
OCC(O)CC(F)(F)C(F)(F)C(F)(F)C(F)(F)C(F)(F)C(F)(F)C(F)(F)C(F)(F)F (stereo not given) [1-(Perfluorofluorooctyl)propane-2,3-diol]	> 100 µM	> 100 µM	> 100 µM	> 100 µM	> 100 µM	> 100 µM	3.1 µM	0.231 µM	0.394 µM	> 100 µM	> 100 µM	0.19 µM	0.516 µM	> 100 µM	> 100 µM	> 100 µM	> 100 µM	> 100 µM	> 100 µM	0.136 µM
N=C(N)C(F)(F)C(F)(F)C(F)(F)C(F)(F)C(F)(F)C(F)(F)C(F)(F)F [Perfluorooctanamidine]	> 100 µM	> 100 µM	> 100 µM	2.86 µM	> 100 µM	> 100 µM	> 100 µM	> 100 µM	> 100 µM	> 100 µM	> 100 µM	> 100 µM	> 100 µM	> 100 µM	> 100 µM	> 100 µM	> 100 µM	> 100 µM	> 100 µM	> 100 µM
O=C(O)C(F)(F)C(F)(F)C(F)(F)OC(F)(F)F [Perfluoro(4-methoxybutanoic)_acid]	> 100 µM	> 100 µM	> 100 µM	> 100 µM	> 100 µM	> 100 µM	> 100 µM	> 100 µM	> 100 µM	> 100 µM	> 100 µM	> 100 µM	> 100 µM	> 100 µM	> 100 µM	> 100 µM	> 100 µM	> 100 µM	> 100 µM	> 100 µM
